Experimental data taken from US7880010B2, “Crystalline forms of a dimethylphenyl compound” (Theravance, Inc., priority 2006, dated 2011).

Legend:
Assay in all cases: Blockade of agonist-mediated calcium release via FLIPR (Assay C)
Assay type in all cases: cell-based
hM3 receptor = target: T1, hM3 receptor (Homo sapiens, UniProt P20309); conditions: CHO cells stably expressing hM3
T1 construct: expressed in transfected cells; host or cells: CHO
Protocol: (§1) In this functional assay, the functional potency of a test compound as an antagonist of hM1, hM3 and […] receptors was determined by measuring the ability of the test compound to inhibit agonist-mediated increases in intracellular calcium.
(§2) CHO cells stably expressing the receptors were seeded into 96-well FLIPR plates the night before the assay was done. Seeded cells were washed twice with FLIPR buffer (10 mM HEPES, pH 7.4, 2 mM calcium chloride, 2.5 mM probenecid in Hank's Buffered Salt Solution (HBSS) without calcium and magnesium) using Cellwash (MTX Labsystems, Inc.) to remove growth media. After washing, each well contained 50 μL of FLIPR buffer. The cells were then incubated with 50 μL/well of 4 μM FLUO-4AM (a 2× solution was made) for 40 minutes at 37° C., 5% carbon dioxide. Following the dye incubation period, cells were washed two times with FLIPR buffer, leaving a final volume of 50 μL in each well.
(§3) The dose-dependent stimulation of intracellular Ca^2+ release for oxotremorine was determined so that the test compound could be measured against oxotremorine stimulation at an EC90 concentration. Cells were first incubated with compound dilution buffer for 20 minutes and then oxotremorine was added. […]
(§4) The parameters used for the FLIPR were: exposure length of 0.4 seconds, laser strength of 0.5 watts, excitation wavelength of 488 nm, and emission wavelength of 550 nm. Baseline was determined by measuring the change in fluorescence for 10 seconds prior to addition of oxotremorine. Following oxotremorine stimulation, the FLIPR continuously measured the change of fluorescence every 0.5 to 1 second for 1.5 minutes to capture the maximum fluorescence change.
(§5) The change of fluorescence was expressed as maximum fluorescence minus baseline fluorescence for each well. The raw data was analyzed against the logarithm of test compound concentration by nonlinear regression with GraphPad Prism (GraphPad Software, Inc., San Diego, Calif.) using the built-in model for sigmoidal dose-response. […]

cM5 receptor = conditions: CHO cells stably expressing cM5
Protocol: as §1, §2, §3, §4, §5

hM1 receptor = target: T2, hM1 receptor (Homo sapiens, UniProt P11229); conditions: CHO cells stably expressing hM1
T2 construct: expressed in transfected cells; host or cells: CHO
T2 sequence (P11229 1-460): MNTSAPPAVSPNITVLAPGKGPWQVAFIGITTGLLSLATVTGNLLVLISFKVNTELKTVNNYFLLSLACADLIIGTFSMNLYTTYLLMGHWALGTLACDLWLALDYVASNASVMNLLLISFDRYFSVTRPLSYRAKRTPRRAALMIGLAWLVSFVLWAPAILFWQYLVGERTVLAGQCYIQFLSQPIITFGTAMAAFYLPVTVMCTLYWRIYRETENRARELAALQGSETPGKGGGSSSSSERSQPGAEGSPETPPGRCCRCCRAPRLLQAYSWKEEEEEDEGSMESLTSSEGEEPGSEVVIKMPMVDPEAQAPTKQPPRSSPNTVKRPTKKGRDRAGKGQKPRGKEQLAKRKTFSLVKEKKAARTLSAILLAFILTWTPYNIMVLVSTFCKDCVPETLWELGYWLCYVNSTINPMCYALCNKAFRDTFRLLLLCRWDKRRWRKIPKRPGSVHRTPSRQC
Protocol: as §1, §2, §3, §4, §5

Measured: Kobs for blockade of agonist-mediated calcium release

T1 sequence (P20309 whole entry): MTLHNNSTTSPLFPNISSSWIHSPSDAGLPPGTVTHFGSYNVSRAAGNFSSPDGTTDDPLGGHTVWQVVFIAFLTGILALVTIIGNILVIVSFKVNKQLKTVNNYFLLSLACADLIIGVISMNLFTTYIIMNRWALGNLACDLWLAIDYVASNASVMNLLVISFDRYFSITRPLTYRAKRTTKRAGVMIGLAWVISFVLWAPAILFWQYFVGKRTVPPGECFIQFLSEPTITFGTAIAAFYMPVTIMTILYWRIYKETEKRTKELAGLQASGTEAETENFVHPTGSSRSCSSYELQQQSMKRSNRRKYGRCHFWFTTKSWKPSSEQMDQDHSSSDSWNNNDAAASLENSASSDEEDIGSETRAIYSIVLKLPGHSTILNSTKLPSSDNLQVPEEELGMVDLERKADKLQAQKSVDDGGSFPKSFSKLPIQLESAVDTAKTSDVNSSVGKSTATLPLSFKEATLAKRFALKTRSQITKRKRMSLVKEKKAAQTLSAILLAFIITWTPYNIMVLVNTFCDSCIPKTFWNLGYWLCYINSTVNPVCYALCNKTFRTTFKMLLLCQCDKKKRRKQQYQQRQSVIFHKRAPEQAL

Cc1cc(NC(=O)CCN2CCC(OC(=O)Nc3ccccc3-c3ccccc3)CC2)c(C)cc1CNC[C@H](O)c1ccc(O)c(NC=O)c1 [compound of formula I, biphenyl-2-ylcarbamic acid 1-[2-(4-{[(R)-2-(3-formylamino-4-hydroxyphenyl)-2-hydroxyethylamino]methyl}-2,5-dimethylphenylcarbamoyl)ethyl]-piperidin-4-yl ester]
less than 10 nM: all assays above
